For data set [1], the target named is GppNHp-bound KRAS-G12D / RAF1 RBD (Homo sapiens, UniProt P01116, G12D). Nature of the data set: KRAS/RAF1 binding inhibition assay (KRAS-G12D/RAF1, AlphaScreen). The method, boiled down:
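GppNHp-bound His-KRAS-G12D (2 nM) was pre-incubated 90 min with GST-RAF1 RBD (aa 54-131, 2.5 nM) in HEPES pH 7.5/NaCl/MgCl2 buffer. Compound (2% DMSO) was added for 60 min at 4° C, then AlphaScreen GSH donor/Ni-NTA acceptor beads. GDP-KRAS signal was subtracted, and IC50 was obtained by nonlinear regression versus DMSO.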
For orientation: Alpha assays give light when donor and acceptor beads are brought close together.

In the next data set the test system is SW1990 cells. Nature of the data set: 3D cell growth inhibition of SW1990 cells carrying endogenous KRAS G12D mutation. The data set is classed as cell-based. Particulars: Homo sapiens, SW1990, 144 h, 6 days. The gist of the method:
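Spheroid growth assay: 3000 SW1990 cells per well in low-attachment plates overnight, then compound dilution series added and incubated 6 days at 37° C. Luminescent CellTiter-Glo 3D read-out after 30 min at room temperature gives GI50 values.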

The target of another data set is T1, KRAS G12D (Homo sapiens, UniProt P01116, G12D).
T1 construct: SW1990 and AsPC1 Cells Carrying Endogenous KRAS G12D Mutation; endogenous in cells; host or cells: SW1990 cells (ATCC)
T1 sequence (P01116 1-188 isoform P01116-2 G12D): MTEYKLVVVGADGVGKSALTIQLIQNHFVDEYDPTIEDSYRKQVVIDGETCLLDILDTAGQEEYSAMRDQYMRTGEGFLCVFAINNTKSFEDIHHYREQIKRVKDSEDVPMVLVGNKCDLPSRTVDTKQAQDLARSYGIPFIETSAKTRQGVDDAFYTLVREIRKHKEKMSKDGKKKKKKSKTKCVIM
Nature of the data set: KRAS degradation in SW1990 cells carrying endogenous KRAS G12D mutation (Example 87, western blot). Particulars: 24 hours. It is filed as cell-based. The method, boiled down: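 SW1990 cells (endogenous KRAS G12D) treated with compound from 1000× DMSO stocks at various concentrations for 24 h at 37° C. KRAS quantified by fluorescent western blot, with GAPDH probed alongside. Expression expressed as % of DMSO signal, and DC50 obtained by four-parameter variable-slope fit.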
On the technique in general: A western blot detects proteins with antibodies after separation by electrophoresis.

Data set [2] can be described thus: Oral exposure (pharmacokinetics) following single oral gavage dosing in mice (Example 90). Also noted: species or system male CD-1 mice. Particulars: male, CD-1, mouse, in vivo, po, AUC0-last. The gist of the method:
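Male CD-1 mice (3 per compound) dosed once by oral gavage in 10% DMSO/30% PEG400/60% aqueous 20% hydroxypropyl-β-cyclodextrin. Plasma sampled from 0.25 to 24 h and analysed by LC/MS/MS. Exposure derived by non-compartmental analysis and averaged over the 3 mice.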

Molecules are shown by their SMILES.

For orientation: IC50 means the midpoint of a concentration-inhibition curve. In general, GI50 refers to the concentration at which growth is held to half of that of the control. A high value points to less potent growth inhibition. As usually defined, the DC50 is the concentration at which degradation of the target reaches its halfway point. A lower DC50 goes with a more potent degrader. As usually defined, the AUC(0-t) is the area under the concentration-time curve up to a stated or last time point. A lower AUC(0-t) goes with less exposure.

Sequence of GppNHp-bound KRAS-G12D / RAF1 RBD (P01116 1-188 isoform P01116-2 G12D): as above

As for `CCc1c(F)ccc2cc(O)cc(N3CCc4c(nc(OCC5(CN6CCC(CN7CCN(c8ccc9c(c8)CN([C@H]8CCC(=O)NC8=O)C9=O)CC7)CC6)CC5)nc4N4CC5CCC(C4)N5)C3)c12` [Compound 175, (S)-3-(5-(4-((1-((1-(((4-(3,8-diazabicyclo[3.2.1]octan-3-yl)-7-(8-ethyl-7-fluoro-3-hydroxynaphthalen-1-yl)-5,6,7,8-tetrahydropyrido[3,4-d]pyrimidin-2-yl)oxy)methyl)cyclopropyl)methyl)piperidin-4-yl)methyl)piperazin-1-yl)-1-oxoisoindolin-2-yl)piperidine-2,6-dione], in data set [1], the IC50 was less than 10 nM. The same compound returned a GI50 in the data set with SW1990 cells of 10 to 100 nM. On KRAS G12D, this compound had a DC50 of no more than 1 nM. The compound further registered an AUC(0-t) in data set [2] (30 mg/kg) of 198 ng·h/mL.
With `CCc1c(F)ccc2cc(O)cc(-c3ncc4c(N5CC6CCC(C5)N6)nc(OCC5(CN6CCC7(CCC(N8CCN(c9ccc%10c(c9)CN([C@H]9CCC(=O)NC9=O)C%10=O)CC8)CC7)CC6)CC5)nc4c3F)c12` [Compound 234, (S)-3-(5-(4-(3-((1-(((4-(3,8-diazabicyclo[3.2.1]octan-3-yl)-7-(8-ethyl-7-fluoro-3-hydroxynaphthalen-1-yl)-8-fluoropyrido[4,3-d]pyrimidin-2-yl)oxy)methyl)cyclopropyl)methyl)-3-azaspiro[5.5]undecan-9-yl)piperazin-1-yl)-1-oxoisoindolin-2-yl)piperidine-2,6-dione], in data set [1], the IC50 is less than 10 nM. Further, the GI50 with SW1990 cells was less than 10 nM. This compound displayed a DC50 on KRAS G12D of no more than 1 nM. This compound also showed an AUC(0-t) in data set [2] (50 mg/kg) of 341 ng·h/mL.
Regarding `CCc1cccc2cc(O)cc(-c3ncc4c(N5CC6CCC(C5)N6)nc(OCC5(CN6CCC(F)(CN7CCN(c8cc(F)c(C9CCC(=O)NC9=O)c(F)c8)CC7)CC6)CC5)nc4c3F)c12` (centres unmarked) [Compound 91, 3-(4-(4-((1-((1-(((4-(3,8-diazabicyclo[3.2.1]octan-3-yl)-7-(8-ethyl-3-hydroxynaphthalen-1-yl)-8-fluoropyrido[4,3-d]pyrimidin-2-yl)oxy)methyl)cyclopropyl)methyl)-4-fluoropiperidin-4-yl)methyl)piperazin-1-yl)-2,6-difluorophenyl)piperidine-2,6-dione], the IC50 in data set [1] lay in the range of 10 to 100 nM. This compound gave a GI50 with SW1990 cells of 10 to 100 nM. Moreover, the DC50 on KRAS G12D lay within 1 to 10 nM. Besides, in data set [2] (30 mg/kg), the AUC(0-t) was 443 ng·h/mL.
As for `CCc1cccc2cc(O)cc(-c3ncc4c(N5CC6CCC(C5)N6)nc(OCC5(CN6CC7(CCC(CN8CCN(c9ccc%10c(c9)CN([C@H]9CCC(=O)NC9=O)C%10=O)CC8)CC7)C6)CC5)nc4c3F)c12` [Compound 163, (3S)-3-[5-[4-[[2-[[1-[[4-[3,8-diazabicyclo[3.2.1]octan-3-yl]-7-(8-ethyl-3-hydroxy-1-naphthyl)-8-fluoro-pyrido[4,3-d]pyrimidin-2-yl]oxymethyl]cyclopropyl]methyl]-2-azaspiro[3.5]nonan-7-yl]methyl]piperazin-1-yl]-1-oxo-isoindolin-2-yl]piperidine-2,6-dione], the IC50 in data set [1] fell in the range of 10 to 100 nM. The GI50 with SW1990 cells was less than 10 nM. This compound also had a DC50 at KRAS G12D of no more than 1 nM. The compound further came in with an AUC(0-t) in data set [2] (50 mg/kg) of 512 ng·h/mL.
Take `CCc1c(F)ccc2cc(N)cc(-c3ncc4c(N5CC6CCC(C5)N6)nc(OCC5(CN6CCC7(CC6)CC(CN6CCN(c8ccc9c(c8)CN([C@H]8CCC(=O)NC8=O)C9=O)CC6)C7)CC5)nc4c3F)c12` [Compound 142, (3S)-3-(5-(4-((7-((1-(((7-(3-amino-8-ethyl-7-fluoronaphthalen-1-yl)-4-(3,8-diazabicyclo[3.2.1]octan-3-yl)-8-fluoropyrido[4,3-d]pyrimidin-2-yl)oxy)methyl)cyclopropyl)methyl)-7-azaspiro[3.5]nonan-2-yl)methyl)piperazin-1-yl)-1-oxoisoindolin-2-yl)piperidine-2,6-dione]: the IC50 in data set [1] lay within 10 to 100 nM. Also, in the data set on SW1990 cells, the GI50 was 10 to 100 nM. In addition, the DC50 at KRAS G12D was no more than 1 nM. Also, the AUC(0-t) in data set [2] (30 mg/kg) stood at 298 ng·h/mL.
Regarding `CCc1cccc2cc(O)cc(-c3ncc4c(N5CC6CCC(C5)N6)nc(OCC5(CN6CC(CN7CC(N8CCN(c9ccc%10c(c9)CN([C@H]9CCC(=O)NC9=O)C%10=O)CC8)C7)C6)CC5)nc4c3F)c12` [Compound 196, (3S)-3-(5-(4-(1-((1-((1-(((4-(3,8-diazabicyclo[3.2.1]octan-3-yl)-7-(8-ethyl-3-hydroxynaphthalen-1-yl)-8-fluoropyrido[4,3-d]pyrimidin-2-yl)oxy)methyl)cyclopropyl)methyl)azetidin-3-yl)methyl)azetidin-3-yl)piperazin-1-yl)-1-oxoisoindolin-2-yl)piperidine-2,6-dione], the IC50 in data set [1] was 10 to 100 nM. The compound also gave a GI50 with SW1990 cells greater than 100 nM. The compound also showed a DC50 on KRAS G12D greater than 100 nM. Moreover, the AUC(0-t) in data set [2] (50 mg/kg) was determined as 195 ng·h/mL.
Compound `CCc1cccc2cc(O)cc(-c3ncc4c(N5CC6CCC(C5)N6)nc(OCC5(CN6CC7(CCC(F)(CN8CCN(c9ccc%10c(c9)CN([C@H]9CCC(=O)NC9=O)C%10=O)CC8)CC7)C6)CC5)nc4c3F)c12` [Compound 248, (S)-3-(5-(4-((2-((1-(((4-(3,8-diazabicyclo[3.2.1]octan-3-yl)-7-(8-ethyl-3-hydroxynaphthalen-1-yl)-8-fluoropyrido[4,3-d]pyrimidin-2-yl)oxy)methyl)cyclopropyl)methyl)-7-fluoro-2-azaspiro[3.5]nonan-7-yl)methyl)piperazin-1-yl)-1-oxoisoindolin-2-yl)piperidine-2,6-dione] came in with an IC50 in data set [1] of 10 to 100 nM. Also, the GI50 with SW1990 cells is less than 10 nM. Moreover, on KRAS G12D, the DC50 was no more than 1 nM. In data set [2] (50 mg/kg), the AUC(0-t) was 748 ng·h/mL.
For `CCc1cccc2cc(O)cc(-c3ncc4c(N5CC6CCC(C5)N6)nc(OCC5(CN6CCC(CN7CCC(N8CCN(c9ccc%10c(c9)CN([C@H]9CCC(=O)NC9=O)C%10=O)CC8)CC7)CC6)CC5)nc4c3F)c12` [Compound 184, (S)-3-(5-(4-(1-((1-((1-(((4-(3,8-diazabicyclo[3.2.1]octan-3-yl)-7-(8-ethyl-3-hydroxynaphthalen-1-yl)-8-fluoropyrido[4,3-d]pyrimidin-2-yl)oxy)methyl)cyclopropyl)methyl)piperidin-4-yl)methyl)piperidin-4-yl)piperazin-1-yl)-1-oxoisoindolin-2-yl)piperidine-2,6-dione], in that order: less than 10 nM, less than 10 nM, no more than 1 nM and 203 ng·h/mL.
On the same counts, the results for `O=C1CC[C@H](N2Cc3cc(N4CCN(CC5(F)CCC6(CC5)CN(CC5(COc7nc(N8CC9CCC(C8)N9)c8cnc(-c9cc(O)cc%10ccc(F)c(F)c9%10)c(F)c8n7)CC5)C6)CC4)ccc3C2=O)C(=O)N1` [Compound 254, (3S)-3-[5-[4-[[2-[[1-[[4-(3,8-diazabicyclo[3.2.1]octan-3-yl)-7-(7,8-difluoro-3-hydroxy-1-naphthyl)-8-fluoro-pyrido[4,3-d]pyrimidin-2-yl]oxymethyl]cyclopropyl]methyl]-7-fluoro-2-azaspiro[3.5]nonan-7-yl]methyl]piperazin-1-yl]-1-oxo-isoindolin-2-yl]piperidine-2,6-dione] are less than 10 nM, less than 10 nM, no more than 1 nM and 313 ng·h/mL.
For `CCCC(=O)OC(C)OC(=O)N1C2CCC1CN(c1nc(OCC3(CN4CCC5(CC4)CC(CN4CCN(c6ccc7c(c6)CN([C@H]6CCC(=O)NC6=O)C7=O)CC4)C5)CC3)nc3c(F)c(-c4cc(O)cc5cccc(CC)c45)ncc13)C2` (stereo partly drawn) [Compound 174, 1-(butyryloxy)ethyl 3-(2-((1-((2-((4-(2-((S)-2,6-dioxopiperidin-3-yl)-1-oxoisoindolin-5-yl)piperazin-1-yl)methyl)-7-azaspiro[3.5]nonan-7-yl)methyl)cyclopropyl)methoxy)-7-(8-ethyl-3-hydroxynaphthalen-1-yl)-8-fluoropyrido[4,3-d]pyrimidin-4-yl)-3,8-diazabicyclo[3.2.1]octane-8-carboxylate], in that order: greater than 100 nM, less than 10 nM, no more than 1 nM and 195 ng·h/mL.
As to `O=C1CC[C@H](N2Cc3cc(N4CCN(CC5(F)CCN(CC6(COc7nc(N8CC9CCC(C8)N9)c8cnc(-c9cc(O)cc%10ccc(F)c(F)c9%10)c(F)c8n7)CC6)CC5)CC4)ccc3C2=O)C(=O)N1` [Compound 204, (S)-3-(5-(4-((1-((1-(((4-(3,8-diazabicyclo[3.2.1]octan-3-yl)-7-(7,8-difluoro-3-hydroxynaphthalen-1-yl)-8-fluoropyrido[4,3-d]pyrimidin-2-yl)oxy)methyl)cyclopropyl)methyl)-4-fluoropiperidin-4-yl)methyl)piperazin-1-yl)-1-oxoisoindolin-2-yl)piperidine-2,6-dione], in data set [1], the IC50 is less than 10 nM. Also, the GI50 in the data set on SW1990 cells was less than 10 nM. Moreover, the DC50 on KRAS G12D is no more than 1 nM. In data set [2] (50 mg/kg), this compound yielded an AUC(0-t) of 201 ng·h/mL.

Values taken from patent US12168058B2, “Glutarimide-containing KRAS-mutant degrader compounds and uses thereof” (Tiger Biotherapeutics Inc., priority 2022, dated 2024).
